Data published in US8546410B2, “Heteroaryl-fused macrocyclic pyrimidine derivatives” (AbbVie Inc., priority 2008, dated 2013).

Legend:
histamine H4 receptor [1] = biological target: T1, histamine H4 receptor (Homo sapiens, UniProt Q9H3N8); assay: In vitro histamine H4 potency in FLIPR (Ca2+ flux, Fluo-4, HEK-293 cells coexpressing Gαqi5); format: cell-based; conditions: Kb values for antagonists and inverse agonists, EC50 values for partial agonists
T1 construct: expressed in transfected cells
Text: There are many methods available to show the effectiveness of compounds as histamine H4 receptor ligands. Histamine H4 receptors from mammalian species have been cloned. Methods to clone, express, and assess the potency and functional activity of such cloned genes are well known to those skilled in the art of molecular biology. Examples of methods of cloning and expressing histamine H4 receptors, and of assessing the potency and functional activity are described in Nguyen, et al. Molecular Pharmacology (2001) vol. 59 pp. 427-433; Zhu, et al. Molecular Pharmacology (2001) vol. 59 pp. 434-441; Coge, et al., Biochemical and Biophysical Research Communications (2001) vol. 284, pp. 301-309; Liu, et al. Molecular Pharmacology (2001) vol. 59 pp. 420-426; Liu, et al. Journal of Pharmacology and Experimental Therapeutics (2001) v. 299, pp. 121-130; and Thurmond, et al. Journal of Pharmacology and Experimental Therapeutics (2004) v. 309, pp. 404-413. In the present case, to determine the potency and effectiveness of representative compounds of this invention as histamine-H4 receptor ligands (H4 receptor ligands), the following tests were conducted according to previously described methods (see Esbenshade, et al., Biochemical Pharmacology (2004), vol. 68, pp. 933-945, and in Krueger, et al., Journal of Pharmacology and Experimental Therapeutics (2005) v. 314, pp. 271-281): histamine H4 receptors were cloned and stably expressed in HEK-293 (human embryonic kidney) cells coexpressing a Gαqi5. Before testing, cells are loaded with a Ca^+2 sensitive fluorescent dye, in this case Fluo-4. In the case of partial agonist or agonist ligands, addition of compound to the cells leads to the increase in intracellular Ca^+2 which is detected by FLIPR (Fluorescence Imaging Plate Reader; Molecular Devices, Sunnyvale, Calif.) technology. In a similar manner, compounds that are antagonists or inverse agonists, block the increase in fluorescence induced by the full histamine H4 agonist histamine, and partial agonists reduce the amount of fluorescence induced by the full histamine H4 agonist histamine. The fluorescence intensities measured before addition of the test compound are subtracted from the fluorescence intensities at later time points. Peak response values determined at each concentration of ligand are expressed as a percentage of the response obtained with the full agonist histamine. Concentration versus response data are analyzed to obtain compound potency as Kb values for antagonists and inverse agonists and as EC50 values for partial agonists.

histamine H4 receptor [2] = biological target: T1, histamine H4 receptor; assay: 3H-histamine competition binding assay, membranes of transfected HEK-293 cells; conditions: displacement of [3H]-histamine, 25° C., 1 hour; Ki by Cheng-Prusoff equation; read-out: Potency
Procedure: The potency of compounds of the invention in displacing ^3H-histamine in competition binding assays is assessed by methods described in Esbenshade, et al., Biochemical Pharmacology (2004), vol. 68, pp. 933-945. In this assay, membranes were prepared from HEK-293 cells transiently transfected with the pCINeo expression vector harboring the histamine H4 receptor by homogenization of the cells on ice in TE buffer (50 mM Tris-HCl buffer, pH 7.4, containing 5 mM EDTA), 1 mM benzamidine, 2 μg/ml aprotinin, 1 μg/ml leupeptin, and 1 μg/ml pepstatin. The homogenate was centrifuged at 40,000 g for 20 minutes at 4° C. This step was repeated, and the resulting pellet was resuspended in TE buffer. Aliquots were frozen at −70° C. until needed. On the day of assay, membranes were thawed and diluted with TE buffer. Competition radioligand binding assays were performed with increasing concentrations of test compound in the presence of [^3H]-histamine incubated at 25° C. for 1 hour in a total volume of 0.5 ml of 50 mM Tris, 5 mM EDTA, pH 7.4. All binding reactions were terminated by filtration under vacuum onto polyethylenimine (0.3%) presoaked Unifilters (PerkinElmer Life Sciences) or Whatman GF/B filters (Whatman, Clifton, N.J.) followed by three brief washes with 4 ml of ice-cold TE buffer. Bound radiolabel was determined by liquid scintillation counting. For all of the radioligand competition binding assays, IC50 values and Hill slopes were determined by Hill transformation of the data and Ki values were determined by the Cheng-Prusoff equation. The following table of representative histamine H4 receptor ligands is provided, along with potency values: […]

Row | Potency (histamine H4 receptor [1]) | Ki (histamine H4 receptor [2]) | SMILES
1 | 700 nM | – | Nc1nc2c(c(N3CC4CCCNC4C3)n1)CCCc1sc(-c3ccccc3)cc1-2 (stereo not shown) [Example 13, 4-octahydro-6H-pyrrolo[3,4-b]pyridin-6-yl-9-phenyl-6,7-dihydro-5H-thieno[2′,3′:6,7]cyclohepta[1,2-d]pyrimidin-2-amine]
2 | 37 nM | – | CN1CCN(c2nc(N)nc3c2CCCc2cccnc2-3)CC1 [Example 14, 4-(4-methylpiperazin-1-yl)-6,7-dihydro-5H-pyrido[3′,2′:6,7]cyclohepta[1,2-d]pyrimidin-2-amine]
3 | 35 nM | – | Nc1nc2c(c(N3CC[C@@H](N)C3)n1)CCCc1cccnc1-2 [Example 15, 4-[(3R)-3-aminopyrrolidin-1-yl]-6,7-dihydro-5H-pyrido[3′,2′:6,7]cyclohepta[1,2-d]pyrimidin-2-amine]
4 | 2350 nM | – | Cc1noc2c1-c1nc(N)nc(N3CCN(C)CC3)c1CCC2 [Example 16, 10-methyl-4-(4-methylpiperazin-1-yl)-6,7-dihydro-5H-isoxazolo[5′,4′:6,7]cyclohepta[1,2-d]pyrimidin-2-amine]
5 | 1860 nM | – | Cc1noc2c1-c1nc(N)nc(N3CC[C@@H](N)C3)c1CCC2 [Example 17, 4-[(3R)-3-aminopyrrolidin-1-yl]-10-methyl-6,7-dihydro-5H-isoxazolo[5′,4′:6,7]cyclohepta[1,2-d]pyrimidin-2-amine]
6 | – | 1300 nM | CN1CCN(c2nc(N)nc3c2CCc2nn(-c4ccccc4)nc2-3)CC1 [Example 20, 6-(4-methylpiperazin-1-yl)-2-phenyl-4,5-dihydro-2H-[1,2,3]triazolo[4,5-h]quinazolin-8-amine]
7 | – | 80 nM | CN1CCN(c2nc(N)nc3c2CCc2sccc2-3)CC1 [Example 21, 4-(4-methylpiperazin-1-yl)-5,6-dihydrothieno[2,3-h]quinazolin-2-amine]

Second part, the molecule before the results:

Row | SMILES | Potency (histamine H4 receptor [1]) | Ki (histamine H4 receptor [2])
8 | Nc1nc2c(c(N3CC4CCCNC4C3)n1)CCCc1sccc1-2 (stereo not shown) [Example 1, 4-octahydro-6H-pyrrolo[3,4-b]pyridin-6-yl-6,7-dihydro-5H-thieno[2′,3′:6,7]cyclohepta[1,2-d]pyrimidin-2-amine] | 17 nM | 6 nM
9 | Nc1nc2c(c(N3CC[C@@H](N)C3)n1)CCCc1sccc1-2 [Example 2, 4-[(3R)-3-aminopyrrolidin-1-yl]-6,7-dihydro-5H-thieno[2′,3′:6,7]cyclohepta[1,2-d]pyrimidin-2-amine] | 6.6 nM | 10 nM
10 | CN[C@@H]1CCN(c2nc(N)nc3c2CCCc2sccc2-3)C1 [Example 3, 4-[(3R)-3-(methylamino)pyrrolidin-1-yl]-6,7-dihydro-5H-thieno[2′,3′:6,7]cyclohepta[1,2-d]pyrimidin-2-amine] | 3.7 nM | 8.8 nM
11 | Nc1nc2c(c(N3CC4CCCNC4C3)n1)CCCc1occc1-2 (stereo not shown) [Example 4, 4-octahydro-6H-pyrrolo[3,4-b]pyridin-6-yl-6,7-dihydro-5H-furo[2′,3′:6,7]cyclohepta[1,2-d]pyrimidin-2-amine] | 14 nM | 12 nM
12 | Cc1cc2c(o1)CCCc1c-2nc(N)nc1N1CC2CCCNC2C1 (stereo not shown) [Example 5, 9-methyl-4-octahydro-6H-pyrrolo[3,4-b]pyridin-6-yl-6,7-dihydro-5H-furo[2′,3′:6,7]cyclohepta[1,2-d]pyrimidin-2-amine] | 34 nM | –
13 | Cc1cc2c(o1)CCCc1c-2nc(N)nc1N1CC[C@@H](N)C1 [Example 6, 4-[(3R)-3-aminopyrrolidin-1-yl]-9-methyl-6,7-dihydro-5H-furo[2′,3′:6,7]cyclohepta[1,2-d]pyrimidin-2-amine] | 252 nM | –
14 | Nc1nc2c(c(N3CC4CCCNC4C3)n1)CCCc1ccoc1-2 (stereo not shown) [Example 7, 4-octahydro-6H-pyrrolo[3,4-b]pyridin-6-yl-6,7-dihydro-5H-furo[3′,2′:6,7]cyclohepta[1,2-d]pyrimidin-2-amine] | 20 nM | 165 nM
15 | CN1CCN(c2nc(N)nc3c2CCCc2c-3cnn2C)CC1 [Example 8, 8-methyl-4-(4-methylpiperazin-1-yl)-5,6,7,8-tetrahydropyrazolo[3′,4′:6,7]cyclohepta[1,2-d]pyrimidin-2-amine] | 107 nM | –
16 | Cn1ncc2c1CCCc1c-2nc(N)nc1N1CC[C@@H](N)C1 [Example 9, 4-[(3R)-3-aminopyrrolidin-1-yl]-8-methyl-5,6,7,8-tetrahydropyrazolo[3′,4′:6,7]cyclohepta[1,2-d]pyrimidin-2-amine] | 105 nM | 426 nM
17 | CC(C)(C)n1ncc2c1CCCc1c-2nc(N)nc1N1CC2CCCNC2C1 (stereo not shown) [Example 10, 8-tert-butyl-4-octahydro-6H-pyrrolo[3,4-b]pyridin-6-yl-5,6,7,8-tetrahydropyrazolo[3′,4′:6,7]cyclohepta[1,2-d]pyrimidin-2-amine] | 187 nM | 44 nM
18 | CN[C@@H]1CCN(c2nc(N)nc3c2CCCc2c-3cnn2-c2ccccc2)C1 [Example 11, 4-[(3R)-3-(methylamino)pyrrolidin-1-yl]-8-phenyl-5,6,7,8-tetrahydropyrazolo[3′,4′:6,7]cyclohepta[1,2-d]pyrimidin-2-amine] | 46 nM | –
19 | Nc1nc2c(c(N3CC4CCCNC4C3)n1)CCCc1sc(Br)cc1-2 (stereo not shown) [Example 12, 9-bromo-4-octahydro-6H-pyrrolo[3,4-b]pyridin-6-yl-6,7-dihydro-5H-thieno[2′,3′:6,7]cyclohepta[1,2-d]pyrimidin-2-amine] | 35 nM | –
20 | Nc1nc2c(c(N3C[C@H]4CCCN[C@H]4C3)n1)CCCc1sccc1-2 [Example 18, 4-[(4aR,7aR)-octahydro-6H-pyrrolo [3,4-b]pyridin-6-yl]-6,7-dihydro-5H-thieno[2′,3′:6,7]cyclohepta[1,2-d]pyrimidin-2-amine] | 6 nM | 1.8 nM
